Results published in article PMC9623576, “Semisynthesis and Evaluation of Anti-Inflammatory Activity of the Cassane-Type Diterpenoid Taepeenin F and of Some Synthetic Intermediates” (Journal of Natural Products, 2022).

Assays:
[1] = tested on: HT29 human colon adenocarcinoma cells; experiment: MTT cancer cell proliferation assay, HT29; type: cell-based; settings: Homo sapiens, HT29, 72 h, MTT; for IC50: HT-29, 72 h, read-out: IC50; for IC80 / IC20: HT-29; for IC20: read-out: IC20
Procedure: The five newly synthesized diterpenoids were evaluated for their cytotoxic effects against three selected tumor cell lines, B16-F10 murine melanoma cells, HT29 human colon adenocarcinoma cells, and HepG2 human hepatocarcinoma cells at increasing concentrations (0–100 μg/mL). After 72 h of treatment, cell viability was determined by an MTT assay, where the tetrazolium dye was transformed into formazan in the mitochondria of viable cells, its absorbance measured at 570 nm and expressed as a percentage with respect to untreated control cells (S3 Figure.). The concentrations required for 20, 50, and for 80% growth inhibition (IC20, IC50, and IC80) were also determined for each compound (Table 2).
(§1) A stock solution was frozen and stored at […]. Before the experiments, this solution was diluted in cell-culture medium to the adequate concentrations for each experiment. […] For nitrite assay, subcytotoxic concentrations (3/4IC50, 1/2IC50, and 1/4IC50), were used to ensure that the NO inhibitory potential was not due to a possible cytotoxic effect. The concentrations of 3/4IC50, 1/2IC50, and 1/4IC50 were used for the cell-cycle analysis. All experiments were measured and compared with control (untreated cells after 24, 48, or 72 h of treatment.)
Human colorectal adenocarcinoma cell line HT29 (ECACC no. 9172201; ATCC no. HTB-38), human hepatocarcinome cell line HepG2 (ECACC no. 85011430), mouse melanoma cells B16-F10 (ATCC no. CRL-6475), and murine monocyte/macrophage-like RAW 264.7 cell line (ATCC no, TIB-71) were cultured in DMEM (Dulbecco’s modified Eagle’s medium) supplemented with 2 mM glutamine, 10% heat-inactivated FCS (fetal calf serum), 10 000 units/mL of penicillin and 10 mg/mL of streptomycin, (for all cancer cell lines), 50 μg/mL of gentamicin (only for RAW 264.7 cell line), and incubated at 37 °C, in an atmosphere of 5% CO2 and 95% humidity. The culture media were changed every 48 h, and the confluent cultures were separated with a trypsin solution (0.25% EDTA). In all experiments, monolayer cells were grown to 80–90% confluence, in sterile cell culture flasks. All cell lines used were purchased from the cell bank of the University of Granada, Spain.
The cytotoxicity assay was performed by the MTT (3-(4,5-dimethylthiazol-2-yl)-2,5-diphenyltetrazolium bromide) method.[21] To quantify the cytotoxicity of compounds, the fresh and suspended cells were seeded in 96-well plates to a volume of 100 μL at 6.0 × 10^3 cells/mL for HT29 and RAW 264.7 cell lines, at 5.0 × 10^3 cells/mL for B16-F10 cells and 15.0 × 10^3 for Hep G2. Then, cells were incubated to adhere over 24 h at 37 °C with 5% CO2. All tested compounds were prepared in fresh growth medium. After 24 h, an additional 100 μL of medium with the corresponding concentrations of products (only medium in the control wells) was added to the corresponding wells, at various final concentrations (0–100 μg/mL). Finally, after 72 h of incubation at 37 °C with 5% CO2, the medium with the compounds were removed and 100 μL of MTT solution (0.5 mg/mL) in 50% of PBS 50% of medium was added to each well. After 1.5 h of incubation, formazan was resuspended in 100 μL of DMSO, and each concentration was tested in triplicate. Relative cell viability, with respect to untreated control cells, was measured by absorbance at 570 nm on an ELISA plate reader (Tecan Sunrise MR20-301, TECAN, Austria).
Cytotoxicity experimental data were fitted to a sigmoidal function (y = ymax/(x/a)^−b) by nonlinear regression. […] These analyses were performed using SigmaPlot 12.5 software. Similar analyses were performed to obtain the IC50 of NO production. All data shown here are representative of at least two independent experiments performed in triplicate. All quantitative data were summarized as the mean ± standard deviation (SD).

[2] = tested on: RAW 264.7 monocyte/macrophage murine cells; experiment: MTT growth inhibition on RAW 264.7 cells; type: cell-based; settings: Mus musculus, RAW264.7, RAW 264.7, MTT; for IC20: 20% growth inhibition; for IC80: 80% growth inhibition
Procedure: as §1
In all experiments, monolayer cells were grown to 80–90% confluence, in sterile cell culture flasks. All cell lines used were purchased from the cell bank of the University of Granada, Spain.
The cytotoxicity assay was performed by the MTT (3-(4,5-dimethylthiazol-2-yl)-2,5-diphenyltetrazolium bromide) method.[21] […] All tested compounds were prepared in fresh growth medium. After 24 h, an additional 100 μL of medium with the corresponding concentrations of products (only medium in the control wells) was added to the corresponding wells, at various final concentrations (0–100 μg/mL). […] After 1.5 h of incubation, formazan was resuspended in 100 μL of DMSO, and each concentration was tested in triplicate.
Cytotoxicity experimental data were fitted to a sigmoidal function (y = ymax/(x/a)^−b) by nonlinear regression. […] Similar analyses were performed to obtain the IC50 of NO production. All data shown here are representative of at least two independent experiments performed in triplicate. All quantitative data were summarized as the mean ± standard deviation (SD).

Compound	IC50 [1] [µM]	IC80 [1] [µM]	IC20 [1] [µM]	IC50 [2] [µM]	IC20 [2] [µM]	IC80 [2] [µM]
COC(=O)[C@]1(C)CCC[C@@]2(C)[C@H]1CC=C1C(C)=C(C(C)C)C(=O)C[C@@H]12 [Compound 16, (1R,4aR,10aR)-Methyl 7-isopropyl-1,4a,8-trimethyl-6-oxo-1,2,3,4,4a,4b,5,6,10,10a-decahydrophenanthrene-1-carboxylate]	33.4 ± 2.16	55 ± 0.93	21.4 ± 3.09	33.1 ± 3.62	30.1 ± 0.49	33.81 ± 0.08
COC(=O)[C@]1(C)CCC[C@]2(C)c3cc(O)c(C=O)c(C)c3CC[C@@H]12 [Compound 21, (1R,4aS,10aR)-Methyl 7-formyl-6-hydroxy-1,4a,8-trimethyl-1,2,3,4,4a,9,10,10a-octahydrophenanthrene-1-carboxylate]	20.1 ± 0.61	30.6 ± 0.81	13.5 ± 0.55	21.1 ± 0.96	17.8 ± 1.34	25.3 ± 0.58
